Literature values as cited in article PMC10720383, “Acetylcholinesterase Inhibition in Rats and Humans Following Acute Fenitrothion Exposure Predicted by Physiologically Based Kinetic Modeling-Facilitated Quantitative In Vitro to In Vivo Extrapolation” (Environmental Science & Technology, 2023).
Like-named read-outs stand apart in the source and are kept apart here.

Key:
[1] = rats; diazinon constant used for FNT; cited from earlier work
[2] = humans; diazinon constant used for FNT; cited from earlier work
[3] = not clear if experimental or in silico, cited from earlier work
[4] = assumed default for neutral and acidic compounds, no experimental data; cited from earlier work

| SMILES | absorption rate constant from intestine to liver (kaI) [1] | absorption rate constant from stomach to liver (kaS) [1] | transfer rate constant from stomach to intestine (ksI) [1] | absorption rate constant from intestine to liver (kaI) [2] | absorption rate constant from stomach to liver (kaS) [2] | transfer rate constant from stomach to intestine (ksI) [2] | LogP, reported data ([3]; ref OECD 1994) | pKa, reported data ([3]; ref Shahpoury et al. 2018) | blood plasma ratio (BPr) [4] |
| --- | --- | --- | --- | --- | --- | --- | --- | --- | --- |
| CCOP(=S)(OCC)Oc1cc(C)nc(C(C)C)n1 [diazinon] | 0.59 h⁻¹ | 0.1 h⁻¹ | 0.48 h⁻¹ | 0.59 h⁻¹ | 0.32 h⁻¹ | 0.48 h⁻¹ |  |  |  |
| Cc1cc(O)ccc1[N+](=O)[O-] [MNP, 3-methyl-4-nitrophenol] |  |  |  |  |  |  | 2.12 | 7.33 | 0.55 |
